Measurements from patent US20240158378A1, “SOLID FORMS OF A 4H-PYRAN-4-ONE STRUCTURED CYP11A1 INHIBITOR” (Orion Corporation, priority 2021, published 2024).

Columns and labels:
Format in all cases: physicochemical
[1] = Slurry experiment (ageing in solvents, XRPD analysis)
Experimental: (§1) XRPD measurements were performed with the X-ray powder diffractometer Bruker D8 Advance at room temperature using copper filled X-ray tube (40 kV×40 mA) as the X-ray source, CuKα (λ=1.5418 Å), a fixed 0.6 mm divergence slit, 0.0125 mm Ni filter and a 2.5° primary Soller slit, and a LynxEye 1-dimensional detector with a 2.5° secondary Soller slit. Data collection was done in 0.02° steps at a scan speed of 0.3°/s, in the range of 3-33° 2θ.
Samples of 20 mg of crystalline form 5 (water content 0.3-0.6) of compound (I) were dispensed in 300 μl of various solvents defined in Table 13 at room temperature (RT) or at 40° C. under magnetic stirring (600-1000 rpm). The resulting suspensions were aged for 1 week at the respective temperatures. After the ageing period the samples were recovered, air-dried at RT and analyzed by XRPD.

[2] = Storage at room temperature in a closed container, re-analysis by XRPD; details: two weeks
Experimental: as §1
Crystalline form 4 of compound (I) was stored at room temperature in a closed container.

[3] = Grinding with water in a ball mill, XRPD analysis; details: 25-30 mg ground with 80 μl of water, Retsch ball mill, 1.5 h, 30 Hz
Experimental: as §1
25-30 mg of crystalline form 3 of compound (I) was ground with 80 μl of water using a Retsch ball mill. Water addition was done in two steps, with total grinding time of 1.5 h and v=30 Hz.

Compound: CS(=O)(=O)N1CCC(COc2coc(CN3Cc4ccccc4C3)cc2=O)CC1 [2-(isoindolin-2-ylmethyl)-5-((1-(methylsulfonyl)piperidin-4-yl)methoxy)-4H-pyran-4-one]
- solid form after ageing of the suspension (XRPD) ([1]; 20 mg in 300 μl of the solvents of Table 13, RT or 40° C., magnetic stirring, aged for 1 week): crystalline form 5 (water content 0.3)

Compound: CS(=O)(=O)N1CCC(COc2coc(CN3Cc4ccccc4C3)cc2=O)CC1 [Crystalline form 4, 2-(isoindolin-2-ylmethyl)-5-((1-(methylsulfonyl)piperidin-4-yl)methoxy)-4H-pyran-4-one]
- solid form after storage (XRPD) [2]: mixture of crystalline form 4 and crystalline form 3

Compound: CS(=O)(=O)N1CCC(COc2coc(CN3Cc4ccccc4C3)cc2=O)CC1 [crystalline form 3, 2-(isoindolin-2-ylmethyl)-5-((1-(methylsulfonyl)piperidin-4-yl)methoxy)-4H-pyran-4-one]
- solid form after grinding with water (XRPD) [3]: crystalline form 2

Compound: CS(=O)(=O)N1CCC(COc2coc(CN3Cc4ccccc4C3)cc2=O)CC1 [form 5, 2-(isoindolin-2-ylmethyl)-5-((1-(methylsulfonyl)piperidin-4-yl)methoxy)-4H-pyran-4-one]
- solid form stability in slurry ([1]; suspensions in the solvents of Table 13, 1 week, RT or 40° C.): stable in conditions with lower water activity
